Reference: PMC12376128, “In vitro and In Vivo Drug Metabolism Analysis of BPI-460372 - A Covalent TEAD1/3/4 Inhibitor” (Current Drug Metabolism, 2025)

What was measured:
[1] = biological target: T1, CYP2D6 (Homo sapiens, UniProt P10635); assay: Metabolic stability in HLMs with or without specific CYP inhibitor (quinidine); format: in vitro ADME; set-up: HLMs (1 mg protein·mL^-1); tissue BioIVT; host or cells: pooled human liver microsomes; conditions: HLMs 1 mg protein/mL, substrate 1 μM, quinidine 20 µM
Protocol: (§1) Before starting the experiments, the HLMs were thawed gently on ice. Metabolic stability incubations were performed at 37 °C. The incubations contained 100 mM phosphate buffer saline (PBS, pH 7.4), HLMs (1 mg protein·mL^-1), dimethyl sulfoxide (DMSO, blank control) or a selective CYP inhibitor, and BPI-460372 or positive control substrates (final incubation concentration, 1 μM). The incubation process started with the addition of NADPH (1 mM final concentration) after a 5-minute preincubation period. The chemical inhibitors were as follows: a-naphthoflavone (2 µM) for CYP1A2, ticlopidine (20 µM) for 2B6, quercetin (20 µM) for CYP2C8, sulfaphenazole (20 µM) for CYP2C9, ticlopidine (200 µM) for CYP2C19, quinidine (20 µM) for CYP2D6, and ketoconazole (20 µM) for CYP3A [9]. Aliquots were maintained in acetonitrile containing internal standard (IS) at various time points, such as 0 min, 5 min, 10 min, 20 min, 30 min, and 60 min. All incubations were performed in triplicate, and the concentration in the supernatant was determined by liquid chromatography-tandem mass spectrometry (LC-MS/MS).
(§2) The elimination rate constant k (min^-1) was obtained by linear regression from the natural logarithm of the […] of the parent drug and the incubation time. The inhibition rate was calculated using equation 1 [10]: […]

[2] = biological target: T1, CYP2D6; assay: Metabolic stability in recombinant human CYP isoenzymes; format: in vitro ADME; set-up: purchased Cypex Ltd. (Dundee, UK); conditions: in 5 min
Protocol: (§3) To identify the specific isoform that participates in the metabolism of BPI-460372, 1 µM BPI-460372 or positive control substrates were mixed with recombinant human CYP1A2, 2B6, 2C8, 2C9, 2C19, 2D6 or 3A4 (100 pmol P450·mL^-1), and the reaction was started by the addition of NADPH (1 mM final concentration) after 5-minute preincubation at 37°C. Aliquots were maintained in acetonitrile containing IS at different time points at 0 min, 5 min, 10 min, 20 min, 30 min, and 60 min. All incubations were performed in triplicate, and the concentration of the supernatant was determined by LC-MS/MS.
(§4) A substrate depletion approach was employed to determine the intrinsic clearance (CLint (rCYPj)) for each isoform. The contribution of each isoform was estimated using equations 2 and 3. CYPj abundance was evaluated as the abundance (CYPj) of each isoform in HLMs (pmol/mg protein).

[3] = biological target: T2, CYP2C9 (Homo sapiens, UniProt P11712); assay: as above; format: in vitro ADME; set-up: purchased Cypex Ltd. (Dundee, UK); conditions: rCYP2C9, 1 µM
Protocol: as §3, §4

[4] = biological target: T2, CYP2C9; assay: Metabolic stability in HLMs with or without specific CYP inhibitor (sulfaphenazole); format: in vitro ADME; set-up: HLMs (1 mg protein·mL^-1); tissue BioIVT; host or cells: pooled human liver microsomes; conditions: 1 µM, pH 7.4
Protocol: as §1, §2

[5] = Metabolite identification in rat plasma, urine, feces and bile; format: in vivo, SD rats; conditions: for Relative abundance of MS peak areas, Rat Bile 0-48 h / Relative abundance of MS peak areas, Rat Feces 0-48 h / Relative abundance of MS peak areas, Rat Urine 0-48 h: oral 6 mg/kg BPI-460372, average of male and female pooled samples; for Relative abundance of MS peak areas, Rat Plasma 0-24 h: oral 12 mg/kg BPI-460372, average of male and female pooled samples
Protocol: (§5) The plasma samples were acquired from SD rats (n=6, 3 female and 3 male) and beagle dogs (n=6, 3 female and 3 male) after administration of 12 mg/kg and 8 mg/kg of BPI-460372, respectively. The rat urine, feces, and bile samples were acquired in SD rats after administration of 6 mg/kg of BPI-460372.
(§6) Equal volume from each rat was pooled together to get 1 male and 1 female 0-24 h plasma samples. An equal percentage by volume of individual urine sample (0-8, 8-24, and 24-48 h) from 3 female and 3 male rats was pooled by time interval across rats, respectively, resulting in two pooled urine samples (1 male and 1 female). An equal percentage by weight of individual feces samples (0-8, 8-24, and 24-48 h) was pooled by time interval across female and male rats, resulting in two pooled fecal samples. An equal percentage by volume of individual bile samples (0-4, 4-8, 8-24, and 24-48 h) was pooled by time interval across female and male rats, resulting in two pooled bile samples. […] Equal volumes from 3 female and 3 male rats were pooled together to get two 0-48 h plasma samples. For blank samples of plasma, urine, and bile, equal volume was pooled across subjects. For a blank sample of feces, equal weight was pooled across rats.
(§7) The pooled plasma, feces, and bile samples were extracted by adding 3-fold volume of acetonitrile, and the mixture was vortexed (1 min) and sonicated (1 min) before centrifugation (7220 g, 5 min). The pooled urine samples were centrifuged (7220 g, 5 min). Then the supernatant was transferred into a clean tube and evaporated to dryness under the nitrogen stream. The residues were redissolved with an appropriate volume of acetonitrile/water (20: 80, v: v). After centrifugation, the redissolved solution was transferred into an HPLC vial for UHPLC-Orbitrap-HRMS (15000 g, 10 min, 4°C).

[6] = tested on: mouse hepatocytes; assay: Metabolism and metabolite formation in hepatocytes; format: in vitro ADME, ICR mouse; conditions: ICR mouse hepatocytes, 10 µM BPI-460372, 4 h incubation
Text: (§8) All the samples were duplicates.

[7] = tested on: dog hepatocytes; assay: Metabolism and metabolite formation in hepatocytes; format: in vitro ADME, beagle dog; conditions: beagle dog hepatocytes, 10 µM BPI-460372, 4 h incubation
Text: as §8

[8] = Metabolite identification in dog plasma; format: in vivo, beagle dogs; conditions: oral 8 mg/kg BPI-460372, average of male and female pooled samples
Protocol: as §5, §6, §7

[9] = tested on: rat hepatocytes; assay: Metabolism and metabolite formation in hepatocytes; format: in vitro ADME, SD rat; conditions: SD rat hepatocytes, 10 µM BPI-460372, 4 h incubation
Text: as §8

[10] = tested on: human hepatocytes; assay: Metabolism and metabolite formation in hepatocytes; conditions: human hepatocytes, 10 µM BPI-460372, 4 h incubation
[11] = tested on: TEAD proteins; assay: Covalent binding to TEAD proteins (in vitro); conditions: in vitro studies
[12] = tested on: TEAD palmitoylation; assay: Inhibition of TEAD palmitoylation (in vitro); format: biochemical; conditions: in vitro studies
[13] = tested on: monkey hepatocytes; assay: Metabolism and metabolite formation in hepatocytes; format: in vitro ADME, cynomolgus monkey; conditions: cynomolgus monkey hepatocytes, 10 µM BPI-460372, 4 h incubation
Text: as §8

[14] = tested on: cysteine S-conjugate β-lyase; assay: Effect of cysteine S-conjugate β-lyase inhibitor AOAA on the metabolism of BPI-460372 (rat urine); conditions: for Area ratio in rat urine, mean (%CV): 20 mg/kg BPI-460372 + 100 mg/kg AOAA, once daily 21 days, urine 0-48 h on day 21; for Change of area ratio in rat urine on coadministration with AOAA: 20 mg/kg BPI-460372 with versus without 100 mg/kg AOAA
Protocol: To investigate the effect of cysteine S-conjugate β-lyase on the metabolism of BPI-460372, SD rats were treated with 20 mg/kg BPI-460372 alone (n=3, male) or 20 mg/kg BPI-460372 coadministration with 100 mg/kg cysteine S-conjugate β-lyase inhibitor AOAA (n=3, male), once daily for 21 consecutive days. On day 21, urine samples were collected at 0-8, 8-24 and 24-48 h. The same percentage of urine samples from each rat was taken at these three time intervals and mixed. The samples were analyzed by LC-MS/MS and then semi-quantified using the peak area ratio of analyte versus IS.

[15] = biological target: T3, recombinant human CYP3A4 (Homo sapiens, UniProt P08684); assay: Metabolic stability in recombinant human CYP isoenzymes; format: in vitro ADME; conditions: rCYP3A4, 1 µM
T3 construct: purchased Cypex Ltd. (Dundee, UK)
Protocol: as §3, §4

[16] = tested on: CYP3A4; assay: Metabolic stability in HLMs with or without specific CYP inhibitor (ketoconazole); format: in vitro ADME, human; conditions: HLMs 1 mg protein/mL, substrate 1 μM, ketoconazole 20 µM
Protocol: as §1, §2

[17] = tested on: CYP2C8; assay: Metabolic stability in HLMs with or without specific CYP inhibitor (quercetin); format: in vitro ADME, human; conditions: HLMs 1 mg protein/mL, substrate 1 μM, quercetin 20 µM
Protocol: as §1, §2

[18] = biological target: T4, CYP1A2 (Homo sapiens, UniProt P05177); assay: Metabolic stability in HLMs with or without specific CYP inhibitor (α-naphthoflavone); format: in vitro ADME; set-up: HLMs (1 mg protein·mL^-1); tissue BioIVT; host or cells: pooled human liver microsomes; conditions: HLMs 1 mg protein/mL, substrate 1 μM, α-naphthoflavone 2 µM
T4 sequence (P05177 1-516): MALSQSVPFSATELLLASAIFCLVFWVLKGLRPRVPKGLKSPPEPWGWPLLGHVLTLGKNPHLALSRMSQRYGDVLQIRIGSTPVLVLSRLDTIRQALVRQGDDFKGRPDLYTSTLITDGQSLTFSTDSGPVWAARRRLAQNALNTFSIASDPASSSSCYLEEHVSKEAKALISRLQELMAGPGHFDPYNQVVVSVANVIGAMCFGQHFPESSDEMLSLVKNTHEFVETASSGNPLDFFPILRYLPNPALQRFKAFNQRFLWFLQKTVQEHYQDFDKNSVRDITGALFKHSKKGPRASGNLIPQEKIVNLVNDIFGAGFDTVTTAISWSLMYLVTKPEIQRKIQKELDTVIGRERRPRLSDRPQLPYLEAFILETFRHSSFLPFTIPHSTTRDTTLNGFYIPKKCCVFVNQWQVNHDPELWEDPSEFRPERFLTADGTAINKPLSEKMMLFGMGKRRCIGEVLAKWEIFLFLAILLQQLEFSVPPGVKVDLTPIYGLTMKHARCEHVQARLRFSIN
Protocol: as §1, §2

T2 sequence (P11712 whole entry): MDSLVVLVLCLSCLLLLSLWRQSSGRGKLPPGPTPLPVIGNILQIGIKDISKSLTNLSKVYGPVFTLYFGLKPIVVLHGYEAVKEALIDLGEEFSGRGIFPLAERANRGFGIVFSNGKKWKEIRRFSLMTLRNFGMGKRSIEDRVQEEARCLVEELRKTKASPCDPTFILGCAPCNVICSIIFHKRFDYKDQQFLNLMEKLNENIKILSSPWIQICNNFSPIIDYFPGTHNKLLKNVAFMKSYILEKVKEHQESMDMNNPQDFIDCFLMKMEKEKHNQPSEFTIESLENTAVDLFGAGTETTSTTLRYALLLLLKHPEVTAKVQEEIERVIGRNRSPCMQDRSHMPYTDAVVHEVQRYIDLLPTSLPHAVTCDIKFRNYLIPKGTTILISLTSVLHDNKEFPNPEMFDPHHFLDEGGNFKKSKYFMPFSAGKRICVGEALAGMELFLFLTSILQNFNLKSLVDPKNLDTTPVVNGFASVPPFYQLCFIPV
T1 sequence (P10635 whole entry): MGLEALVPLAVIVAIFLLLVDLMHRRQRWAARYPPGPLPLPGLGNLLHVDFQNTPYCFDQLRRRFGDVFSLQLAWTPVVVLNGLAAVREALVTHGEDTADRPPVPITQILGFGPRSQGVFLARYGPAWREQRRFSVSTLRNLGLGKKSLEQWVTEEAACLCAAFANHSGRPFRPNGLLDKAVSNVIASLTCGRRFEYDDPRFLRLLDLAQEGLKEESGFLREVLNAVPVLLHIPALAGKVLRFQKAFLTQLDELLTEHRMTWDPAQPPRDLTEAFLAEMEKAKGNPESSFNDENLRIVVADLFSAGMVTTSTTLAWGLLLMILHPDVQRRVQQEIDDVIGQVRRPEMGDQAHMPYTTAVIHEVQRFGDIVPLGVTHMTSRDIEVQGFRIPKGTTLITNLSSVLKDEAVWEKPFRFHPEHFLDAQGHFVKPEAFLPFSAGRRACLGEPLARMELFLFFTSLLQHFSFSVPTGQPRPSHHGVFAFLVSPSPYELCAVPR
T3 sequence (P08684 whole entry): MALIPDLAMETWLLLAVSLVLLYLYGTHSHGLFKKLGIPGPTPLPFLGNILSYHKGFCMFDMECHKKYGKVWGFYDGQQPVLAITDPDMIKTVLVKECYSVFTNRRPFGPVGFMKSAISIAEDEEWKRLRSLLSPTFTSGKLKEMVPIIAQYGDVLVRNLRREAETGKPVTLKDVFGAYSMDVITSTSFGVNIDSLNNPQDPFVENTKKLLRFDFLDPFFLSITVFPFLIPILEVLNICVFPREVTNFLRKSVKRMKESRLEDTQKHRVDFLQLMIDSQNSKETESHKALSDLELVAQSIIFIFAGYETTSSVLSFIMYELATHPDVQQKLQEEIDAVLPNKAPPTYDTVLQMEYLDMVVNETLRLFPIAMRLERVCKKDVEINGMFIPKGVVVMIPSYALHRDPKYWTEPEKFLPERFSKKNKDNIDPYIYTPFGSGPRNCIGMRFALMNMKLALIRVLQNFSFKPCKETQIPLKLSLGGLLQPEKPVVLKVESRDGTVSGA

Structure (SMILES) | Relative abundance of MS peak areas, Rat Bile 0-48 h [5] [%] | Relative abundance of MS peak areas, Rat Feces 0-48 h [5] [%] | Relative abundance of MS peak areas, Rat Urine 0-48 h [5] [%] | Relative abundance of MS peak areas, Rat Plasma 0-24 h [5] [%] | UV (314 nm) Peak Areas Relative Abundance [6] | UV (314 nm) Peak Areas Relative Abundance [7] | Relative abundance of MS peak areas, Dog Plasma 0-48 h [8] [%] | UV (314 nm) Peak Areas Relative Abundance [9] | UV (314 nm) Peak Areas Relative Abundance [10] | UV (314 nm) Peak Areas Relative Abundance [13] [%] | Area ratio in rat urine, mean (%CV) [14] | also measured
COc1ccc2c(c1)[C@]13CCCC[C@@H]1[C@H](C2)N(C)CC3 [Dextromethorphan, reference compound] |  |  |  |  |  |  |  |  |  |  |  | Inhibition Rate [1]: 87.1%; Extent of metabolism in recombinant human CYP2D6 [2]: completely metabolized
O=C(O)Cc1ccccc1Nc1c(Cl)cccc1Cl [Diclofenac, diclofenac, reference compound] |  |  |  |  |  |  |  |  |  |  |  | CLint (rCYPj) [3]: 3.53 µL/min/pmol; Inhibition Rate [4]: 98.2%
CC(O)C(=O)N1CC(n2c(=O)n(-c3ccc(C(F)(F)F)cc3)c3nccnc32)C1 (stereo not drawn) [M407 (BPI-460430)] | 0.72 | 5.94 | 1.02 | 16.39 | 1.39% | + | 6.23 | 2.75% | + | 3.61 |  | Covalent binding to TEAD proteins [11]: do not covalently bind; Activity: inhibition of TEAD palmitoylation [12]: inactive
O=C(C(O)CO)N1CC(n2c(=O)n(-c3ccc(C(F)(F)F)cc3)c3nccnc32)C1 (stereo not drawn) [M423 (BPI-460456)] | 0.58 | 9.07 | 17.63 | 2.71 | + | + | 40.81 | + | 2.36% | 2.01 | 19.0 (57) | Covalent binding to TEAD proteins [11]: do not covalently bind; Activity: inhibition of TEAD palmitoylation [12]: inactive
CSCC(O)C(=O)N1CC(n2c(=O)n(-c3ccc(C(F)(F)F)cc3)c3nccnc32)C1 (stereo not drawn) [M453] |  | 1.57 | 17.25 | 0.05 |  |  | 3.58 |  |  |  | 0.23 (23) | Change of area ratio in rat urine on coadministration with AOAA [14]: reduced
NC(CSCC(F)C(=O)N1CC(n2c(=O)n(-c3ccc(C(F)(F)F)cc3)c3nccnc32)C1)C(=O)O (stereo not drawn) [M528] | 43.88 | 1.61 | 0.69 | 1.53 | 24.76% | 22.65% | 7.65 | 18.4% | 3.01% | 3.01 | 0.12 (37) | Change of area ratio in rat urine on coadministration with AOAA [14]: reduced
Cc1ncc2n1-c1ccc(Cl)cc1C(c1ccccc1F)=NC2 [Midazolam, midazolam, reference compound] |  |  |  |  |  |  |  |  |  |  |  | CLint (rCYPj) [15]: 1.93 µL/min/pmol; Inhibition Rate [16]: 99.7%
CC(=O)O[C@H]1C(=O)[C@@]2(C)[C@H]([C@H](OC(=O)c3ccccc3)[C@]3(O)C[C@H](OC(=O)[C@H](O)[C@@H](NC(=O)c4ccccc4)c4ccccc4)C(C)=C1C3(C)C)[C@]1(OC(C)=O)CO[C@@H]1C[C@@H]2O [Paclitaxel, reference compound] |  |  |  |  |  |  |  |  |  |  |  | Inhibition Rate [17]: 78.2%
CCOc1ccc(NC(C)=O)cc1 [Phenacetin, phenacetin, reference compound] |  |  |  |  |  |  |  |  |  |  |  | Inhibition Rate [18]: 79.2%
